Target: NaCT (Homo sapiens, UniProt Q86YT5)
Assay: cryo-EM structure at […] Å
Format: binding

Sequence of NaCT (Q86YT5 whole entry): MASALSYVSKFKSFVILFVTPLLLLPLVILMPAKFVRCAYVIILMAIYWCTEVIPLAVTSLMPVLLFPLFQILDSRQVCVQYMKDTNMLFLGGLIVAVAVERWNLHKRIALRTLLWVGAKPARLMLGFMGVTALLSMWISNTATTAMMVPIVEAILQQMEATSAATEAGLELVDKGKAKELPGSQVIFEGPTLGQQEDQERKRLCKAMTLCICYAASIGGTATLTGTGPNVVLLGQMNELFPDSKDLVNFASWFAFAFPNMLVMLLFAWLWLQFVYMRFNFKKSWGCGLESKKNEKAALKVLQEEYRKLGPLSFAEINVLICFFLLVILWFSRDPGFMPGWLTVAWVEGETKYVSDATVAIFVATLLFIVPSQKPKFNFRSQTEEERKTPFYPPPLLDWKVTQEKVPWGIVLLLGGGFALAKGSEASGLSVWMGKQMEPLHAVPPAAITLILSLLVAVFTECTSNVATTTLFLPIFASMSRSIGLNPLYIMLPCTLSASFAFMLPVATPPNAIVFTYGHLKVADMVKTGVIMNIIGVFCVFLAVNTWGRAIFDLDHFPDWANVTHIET

Kd: 148 ± 28 µM
Structure (SMILES): O=C(O)CC(O)(CC(=O)O)C(=O)O [citrate]
